Data: patent publication US20060228387A1, “Dihydronepetalactams and N-substituted derivatives thereof” (priority 2004, published 2006)

Test system: Aedes aegypti mosquitoes
Assay: in vitro Gupta box landing assay (insect repellency)
Settings: 20 min; 1% (w/v) in isopropyl alcohol, 25 μL on Baudruche membrane; female Aedes aegypti; landings over 20 min vs IPA control
Method: The products of Examples 1-15 were evaluated for insect repellency against Aedes aegypti mosqutioes in the in vitro Gupta box landing assay. In this method a chamber contained 5 wells, each covered by a Baudruche (animal intestine) membrane. Each well was filled with bovine blood containing sodium citrate (to prevent clotting) and ATP (72 mg ATP disodium salt per 26 ml of blood), and heated to 37° C. A volume of 25 μL of isopropyl alcohol (IPA) containing one test specimen or control was applied to each membrane. The concentrations of the dihydronepetalactam products were 1% (w/v) in IPA. The negative control was neat IPA and the positive control was a 1% (w/v) solution of DEET. After 5 min, approximately 250 4-day-old female Aedes aegypti mosquitoes were introduced into the chamber. The number of mosquitoes probing the membranes for each treatment was recorded at 2 min intervals over 20 min. The results obtained in this manner with respect to the compounds of […] are depicted in FIGS. 1-10 (labeled as Examples 16˜25), wherein each datum represents the mean of five replicate experiments. […] The % mean repellencies at 1% (w/v) are depicted in Table 2 for the compounds of Examples 1˜15, wherein R refers to the substituent on dihydronepetalactam.

| Compound | pest or weed control at 10000 µg/mL |
| --- | --- |
| C[C@@H]1CNC(=O)[C@H]2[C@@H]1CC[C@@H]2C [V, (4S,4aR,7S,7aR)-4,7-dimethyloctahydro-1H-cyclopenta[c]pyridin-1-one] | 69.6% |
| CC(C)N1C[C@@H](C)[C@H]2CC[C@H](C)[C@H]2C1=O [IVh, (4S,4aR,7S,7aR)-2-n-isopropyl-4,7-dimethyloctahydro-1H-cyclopenta[c]pyridin-1-one] | 69.4% |
| C[C@@H]1CN(c2ccc(Cl)cc2)C(=O)[C@H]2[C@@H]1CC[C@@H]2C [VIIb, (4S,4aR,7S,7aR)-2-(4-chlorophenyl)-4,7-dimethyloctahydro-1H-cyclopenta[c]pyridin-1-one] | 81.5% |
| CCN1C[C@@H](C)[C@H]2CC[C@H](C)[C@H]2C1=O [IVb, (4S,4aR,7S,7aR)-2-ethyl-4,7-dimethyloctahydro-1H-cyclopenta[c]pyridin-1-one] | 96.8% |
| C[C@@H]1CN(C)C(=O)[C@H]2[C@@H]1CC[C@@H]2C [IVa, (4S,4aR,7S,7aR)-2,4,7-trimethyloctahydro-1H-cyclopenta[c]pyridin-1-one] | 39.6% |
| CCCCCN1C[C@@H](C)[C@H]2CC[C@H](C)[C@H]2C1=O [IVe, (4S,4aR,7S,7aR)-2-n-pentyl-4,7-dimethyloctahydro-1H-cyclopenta[c]pyridin-1-one] | 100% |
| CCCN1C[C@@H](C)[C@H]2CC[C@H](C)[C@H]2C1=O [IVc, (4S,4aR,7S,7aR)-2-n-propyl-4,7-dimethyloctahydro-1H-cyclopenta[c]pyridin-1-one] | 87.9% |
| C[C@@H]1CN(c2ccccc2)C(=O)[C@H]2[C@@H]1CC[C@@H]2C [VIIa, (4S,4aR,7S,7aR)-4,7-dimethyl-2-phenyloctahydro-1H-cyclopenta[c]pyridin-1-one] | 59.5% |
| C=CCN1C[C@@H](C)[C@H]2CC[C@H](C)[C@H]2C1=O [IVi, (4S,4aR,7S,7aR)-2-n-allyl-4,7-dimethyloctahydro-1H-cyclopenta[c]pyridin-1-one] | 90.6% |
| C#CCN1C[C@@H](C)[C@H]2CC[C@H](C)[C@H]2C1=O [IVj, (4S,4aR,7S,7aR)-2-n-propargyl-4,7-dimethyloctahydro-1H-cyclopenta[c]pyridin-1-one] | 88.1% |
| CCCCN1C[C@@H](C)[C@H]2CC[C@H](C)[C@H]2C1=O [IVd, (4S,4aR,7S,7aR)-2-n-butyl-4,7-dimethyloctahydro-1H-cyclopenta[c]pyridin-1-one] | 86.3% |
| CCCCCCCCN1C[C@@H](C)[C@H]2CC[C@H](C)[C@H]2C1=O [IVg, (4S,4aR,7S,7aR)-2-n-octyl-4,7-dimethyloctahydro-1H-cyclopenta[c]pyridin-1-one] | 98.3% |
| CCCCCCN1C[C@@H](C)[C@H]2CC[C@H](C)[C@H]2C1=O [IVf, (4S,4aR,7S,7aR)-2-n-hexyl-4,7-dimethyloctahydro-1H-cyclopenta[c]pyridin-1-one] | 99.8% |
| C[C@@H]1CN(c2ccc(Br)cc2)C(=O)[C@H]2[C@@H]1CC[C@@H]2C [VIIc, (4S,4aR,7S,7aR)-2-(4-bromophenyl)-4,7-dimethyloctahydro-1H-cyclopenta[c]pyridin-1-one] | 54.1% |
